According to US20060258697A1, “Method of augmenting the antitumor activity of anticancer agents” (priority 2003, published 2006):
Read-outs that look alike come from different tables or passages of the source.

Assays:
[1] = system: A253 squamous cell carcinoma of the head and neck xenografts; assay: Cure rate / antitumor activity in nude mice bearing A253 head and neck xenografts; type: in vivo
Protocol: (§1) 5-Methylselenocysteine (MSC). Two schedules were evaluated: 1) in combination with irinotecan, MSC (0.2 mg/mouse/d×28) was administered orally for 28 days with the first dose administered daily for seven days prior to the weekly drug administration and 2) in combination with other drugs, MSC was administered orally (0.2 mg/mouse/d×14) daily for 14 days with the first dose administered daily for seven days prior to the single i.v. administration of taxol, CDDP, Dox, taxotere and cyclophosphamide.
(§2) Anticancer drug administration. The anticancer drugs administration schedule was as follows. • i. Irinotecan (CPT-11), weekly i.v. push for four (4) weeks, • ii. Taxol, single i.v. push, • iii. Cisplatin (CDDP), single i.v. push. • iv. Doxorubin (Dox), single i.v. push. • v. Cyclophosphamide, single i.v. push. • vi. Oxaliplatin, single i.v. push • vii. Taxotere, single i.v. push
(§3) Tumor Xenografts. […] The following tumor xenografts were established. • i. HCT-8: poorly-differentiated colon carcinoma, expressing wild type p53 • ii. HT-29: well-differentiated colon carcinoma expressing mutant p53 • iii. A253: well-differentiated squamous cell carcinoma of the head and neck (SCCHN) expressing no p53 • iv. FaDu: poorly-differentiated squamous cell carcinoma of the head and neck (SCCHN) expressing mutant p53
This example describes the comparative antitumor activity of MSC and SLM in combination with the maximum tolerated dose of irinotecan. […] As an illustration, MSC and SLM were used in combination with irinotecan. The results, shown in FIG. 3, represent a comparative evaluation of the effect of MSC and SLM (0.2 mg/mouse/d×28) on the antitumor activity of irinotecan (100 mg/kg/wk×4).
To determine whether therapeutic synergy achieved with irinotecan in xenografts is specific for MSC, the antitumor activity of irinotecan with and without two selenium-containing compounds, MSC and SLM were compared in xenografts bearing A253 (SCCHN) tumors for the […] (200 mg/kg/wk×4). The data compare the antitumor activity of MSC with SLM in combination with irinotecan (200 mg/kg/wk×4).
(§4) This example describes the modulation of the antitumor activity of anticancer drugs by MSC in mice bearing human tumors. […] To determine whether modulation of the therapeutic efficacy and cure of irinotecan by MSC is drug specific, the antitumor activity of drugs, representing different classes and mechanisms of action were evaluated alone and in combination with non-toxic doses and schedules of MSC (0.2 mg/mouse/d×14) in xenografts bearing human A253 and FaDu (SCCHN) tumors (FIG. 5). The data in FIG. 5 represent the use of the MTD doses of cisplatin (8 mg/kg×1), cyclophosphamide (100 mg/kg×1), taxol (35 mg/kg ×1.) and doxorubicin (10 mg/kg×1).

[2] = system: FaDu squamous cell carcinoma of the head and neck xenografts; assay: Cure rate / antitumor activity in nude mice bearing FaDu head and neck xenografts; type: in vivo; conditions: for % CR of Surviving Animals FaDu: without or with MSC 0.2 mg/mouse/d
Protocol: as §1, §2
Tumor Xenografts. […] The following tumor xenografts were established. • i. HCT-8: poorly-differentiated colon carcinoma, expressing wild type p53 • ii. HT-29: well-differentiated colon carcinoma expressing mutant p53 • iii. A253: well-differentiated squamous cell carcinoma of the head and neck (SCCHN) expressing no p53 • iv. FaDu: poorly-differentiated squamous cell carcinoma of the head and neck (SCCHN) expressing mutant p53 […]
as §4
In mice, MSC was orally administered at 0.2 mg/mouse/d with the first daily dose administered seven days prior to single i.v. administration of drug and continuous for additional seven days for a total MSC treatment of 14 days.

in vivo [3] = conditions: rat
in vivo [4] = conditions: nude, mouse
rat = assay: Reduction of doxorubicin toxicity by selenium compounds in rats; type: in vivo; conditions: 0.5 mg/day/rat daily for 14 days, started 7 days prior to doxorubicin; data not shown
HCT-8 colon xenografts = assay: Cure rate / antitumor activity in nude mice bearing HCT-8 colon xenografts; type: in vivo; conditions: for HCT-8 CR (%) / HCT-8 PR (%): drug 100 mg/kg/week i.v. × 4, MSC 0.2 mg/day/mouse p.o. 42 days started 21 days before drug; for % CR of Surviving Animals HCT-8: without or with MSC 0.2 mg/mouse/d
Protocol: as §1, §2, §3
This example describes the evaluation of the effect of selenium containing compounds on the antitumor activity of irinotecan. […] Irinotecan was administered at 100 mg/kg/wk for 4 weeks (MTD) and 200 mg/kg/wk for 4 weeks (toxic) alone and in combination with 0.2 mg/mouse/d of MSC for 28 days to nude mice bearing HCT-8 colon xenografts.
For these experiments, FUra was administered by i.v. push weekly times 4 and MSC by p.o. once a day for 6 weeks, the first dose being given 3 weeks before FUra administration. Irinotecan was administered by i.v. 100 mg/kg/week once a week for 4 weeks and MSC (0.2 mg/day), by p.o. daily for 28 days with the first dose started 7 days prior to irinotecan treatment.

HT-29 colon xenografts = assay: Cure rate / antitumor activity in nude mice bearing HT-29 colon xenografts; type: in vivo; conditions: for HT-29 CR (%) / HT-29 PR (%): drug 100 mg/kg/week i.v. × 4, MSC 0.2 mg/day/mouse p.o. 42 days started 21 days before drug; for % CR of Surviving Animals HT-29: without or with MSC 0.2 mg/mouse/d
nude mice = assay: Irinotecan lethality / survival with and without selenium compound; type: in vivo; conditions: for Survivor (%): without or with MSC 0.2 mg/mouse/d × 28 p.o.
Protocol: This example describes the evaluation of the effect of selenium containing compounds on the antitumor activity of irinotecan. […] Irinotecan was administered at 100 mg/kg/wk for 4 weeks (MTD) and 200 mg/kg/wk for 4 weeks (toxic) alone and in combination with 0.2 mg/mouse/d of MSC for 28 days to nude mice bearing HCT-8 colon xenografts. […] Thus, MSC potentiates the efficacy of irinotecan by increasing cure rate and by decreasing toxicity.
Nude mice (5 mice/group; experiment repeated ≧3 times) were treated with 0.2 mg/mouse/day of SLM (data replicated with MSC) for 21, 7, 3, 1, or 0 days prior to initiation of weekly IV irinotecan at 2 ×the MTD (at 200mg/kg/week×4). […] 3 days pre-treatment was associated with 80% survivorship while 0-1 days were associated with 60% (45% survivorship for irinotecan alone) (FIG. 13). Thus, the optimal duration of pre-treatment with SLM 0.2mg/mouse/day for maximum protection against irinotecan lethality was identified to be at least 1 week.

normal nude mice = assay: Toxicity of selenium compounds alone in normal nude mice; type: in vivo; conditions: 0.2 mg/mouse/day for 28 days orally
Protocol: However, it was observed that when cure rates were evaluated, selenium increased the efficacy of only irinotecan and taxotere. While not intending to be bound by any particular theory, it is considered that potentiation of the efficacy of anticancer drugs is associated with increased antitumor activity and decreased toxicity.

Rats = conditions: oxaliplatin 10 mg/kg single i.v.; alone or with MSC […]
Protocol: In this example, the effect of selenium on the antitumor activity of oxaliplatin and doxorubicin was tested as follows. The effect of selenium was determined on the antitumor activity of oxaliplatin in rats bearing advanced ward colorectal carcinoma (3000 mg). Rats received MSC (0.75 mg/rat/d) or saline fourteen days prior to single i.v. injection of oxaliplatin of 5 and 10 mg/kg with continuous daily oral administration of MSC for additional seven days for a total of 21 days of MSC and oxaliplatin is administered on day 14 after saline and MSC treatment.

[5] = Table 3 (A253), drug dose mg/kg and MSC mg/mouse/day in parentheses of Treatment
[6] = Table 3 first column pair (head printed 'FaUra'), drug dose mg/kg and MSC mg/mouse/day in parentheses of Treatment
[7] = Table 3 first column pair (head printed 'FaUra'), drug dose mg/kg and MSC mg/mouse/day in parentheses of Treatment, schedules per footnote

CC(=O)O[C@H]1C(=O)[C@@]2(C)[C@H]([C@H](OC(=O)c3ccccc3)[C@]3(O)C[C@H](OC(=O)[C@H](O)[C@@H](NC(=O)c4ccccc4)c4ccccc4)C(C)=C1C3(C)C)[C@]1(OC(C)=O)CO[C@@H]1C[C@@H]2O [Taxol]
CR (%) (complete tumor regression) [1, 5]: 0%
PR (%) (partial tumor regression, >50% tumor reduction) [1, 5]: 0%
PR (%) (partial tumor regression, >50% tumor reduction) [2, 6]: 0%
CR (%) (complete tumor regression) [2, 7]: 0%
MTD (in vivo [3]): 50 mg/kg
MTD (in vivo [4]): 35 mg/kg

CCCCCOC(=O)Nc1nc(=O)n([C@@H]2O[C@H](C)[C@@H](O)[C@H]2O)cc1F [Xeloda]
CR (%) (complete tumor regression) [1, 5]: 0%
PR (%) (partial tumor regression, >50% tumor reduction) [1, 5]: 0%
CR (%) (complete tumor regression) [2, 7]: 0%

N.N.[Cl][Pt][Cl] [Cisplatin, cisplatin]
CR (%) (complete tumor regression) [1, 5]: 0%
PR (%) (partial tumor regression, >50% tumor reduction) [1, 5]: 0%
PR (%) (partial tumor regression, >50% tumor reduction) [2, 6]: 0%
CR (%) (complete tumor regression) [2, 7]: 0%
MTD (mg/kg) Mice (Mice; drug alone (−) or with MSC (+)): 8 mg/kg

O=[Se](O)O [sodium selenite]
reducing toxicity of doxorubicin (rat): not sodium selenite

O=c1[nH]cc(F)c(=O)[nH]1 [FUra]
HCT-8 CR (%) (HCT-8 colon xenografts): 0%
HCT-8 PR (%) (HCT-8 colon xenografts): 0%
HT-29 CR (%) (HT-29 colon xenografts): 0%
HT-29 PR (%) (HT-29 colon xenografts): 0%
CR (%) (complete tumor regression) [1, 5]: 0%
PR (%) (partial tumor regression, >50% tumor reduction) [1, 5]: 0%
CR (%) (complete tumor regression) [2, 7]: 0%

CC[C@@]1(O)C(=O)OCc2c1cc1n(c2=O)Cc2cc3c(CN(C)C)c(O)ccc3nc2-1 [Topotecan, topotecan]
CR (%) (complete tumor regression) [1, 5]: 0%
PR (%) (partial tumor regression, >50% tumor reduction) [1, 5]: 0%
PR (%) (partial tumor regression, >50% tumor reduction) [2, 6]: 0%
CR (%) (complete tumor regression) [2, 7]: 0%

C[Se]C[C@H](N)C(=O)O [MSC, 5-methylselenocysteine]
lowest effective dose in attenuating irinotecan toxicity (nude mice; nude mice, p.o. daily): 0.01 mg/day
toxicity of selenium compound alone (normal nude mice): not to be toxic
reducing toxicity of doxorubicin (rat): effective in reducing toxicity

O=P1(N(CCCl)CCCl)NCCCO1 (centres unmarked) [Cyclophosphamide, cyclophosphamide]
CR (%) (complete tumor regression) ([1]; mouse, in vivo): 0%
PR (%) (partial tumor regression, >50% tumor reduction) ([1]; mouse, in vivo): 0%
CR (%) (complete tumor regression) ([2]; mouse, in vivo): 0%
PR (%) (partial tumor regression, >50% tumor reduction) ([2]; mouse, in vivo): 0%
MTD (in vivo [4]): 100 mg/kg

CCc1c2c(nc3ccc(OC(=O)N4CCC(N5CCCCC5)CC4)cc13)-c1cc3c(c(=O)n1C2)COC(=O)[C@]3(O)CC [Irinotecan, irinotecan]
HCT-8 CR (%) (HCT-8 colon xenografts): 20%
HCT-8 PR (%) (HCT-8 colon xenografts): 20%
% CR of Surviving Animals HCT-8 (HCT-8 colon xenografts; irinotecan 100 mg/kg/wk × 4): 20%
% CR of Surviving Animals HCT-8 (HCT-8 colon xenografts; irinotecan 200 mg/kg/wk × 4): 30%
HT-29 CR (%) (HT-29 colon xenografts): 0%
HT-29 PR (%) (HT-29 colon xenografts): 0%
% CR of Surviving Animals HT-29 (HT-29 colon xenografts; irinotecan 100 mg/kg/wk × 4): 0%
% CR of Surviving Animals HT-29 (HT-29 colon xenografts; irinotecan 200 mg/kg/wk × 4): 10%
CR (%) (complete tumor regression) [1, 5]: 10%
PR (%) (partial tumor regression, >50% tumor reduction) [1, 5]: 30%
% CR of Surviving Animals A253 ([1]; irinotecan 100 mg/kg/wk × 4, without or with MSC 0.2 mg/mouse/d): 20%
% CR of Surviving Animals A253 ([1]; irinotecan 200 mg/kg/wk × 4, without or with MSC or SLM 0.2 mg/mouse/d): 40%
PR (%) (partial tumor regression, >50% tumor reduction) [2, 6]: 50%
CR (%) (complete tumor regression) [2, 7]: 30%
% CR of Surviving Animals FaDu ([2]; irinotecan 100 mg/kg/wk × 4): 30%
% CR of Surviving Animals FaDu ([2]; irinotecan 200 mg/kg/wk × 4): 50%
Survivor (%) (nude mice; irinotecan 100 mg/kg/wk × 4 i.v.): 100%
survivorship (nude mice; irinotecan 200 mg/kg/week × 4 alone (Example 8)): 45%
Survivor (%) (nude mice; irinotecan 200 mg/kg/wk × 4 i.v.): 50%
lethality (nude mice; irinotecan 300 mg/kg/wk × 4, alone or with MSC): 100%
Survivor (%) (nude mice; irinotecan 300 mg/kg/wk × 4 i.v.): 0%
maximum tolerated weekly dose (Mice; weekly i.v. for 4 weeks, nude mice): 100 mg/kg/wk

O=C1[O][Pt]2([NH][C@@H]3CCCC[C@H]3[NH]2)[O]C1=O [Oxaliplatin, oxaliplatin]
CR (%) (complete tumor regression) ([1]; mouse, in vivo): 0%
PR (%) (partial tumor regression, >50% tumor reduction) ([1]; mouse, in vivo): 0%
CR (%) (complete tumor regression) ([2]; mouse, in vivo): 0%
PR (%) (partial tumor regression, >50% tumor reduction) ([2]; mouse, in vivo): 0%
MTD (mg/kg) Mice (Mice; drug alone (−) or with MSC (+)): 7.5 mg/kg
toxicity (weight loss and diarrhea) (Rats): toxic

COc1cccc2c1C(=O)c1c(O)c3c(c(O)c1C2=O)C[C@@](O)(C(=O)CO)C[C@@H]3O[C@H]1C[C@H](N)[C@H](O)[C@H](C)O1 [Doxorubicin, doxorubicin]
CR (%) (complete tumor regression) [1, 5]: 0%
PR (%) (partial tumor regression, >50% tumor reduction) [1, 5]: 60%
PR (%) (partial tumor regression, >50% tumor reduction) [2, 6]: 0%
CR (%) (complete tumor regression) [2, 7]: 0%
MTD (mg/kg) Mice (Mice; nude, mouse, in vivo): 10 mg/kg
MTD (in vivo [3]): 6 mg/kg
